Assay [1] concerns carrot root cambium-containing explant. The experiment in a line: Cell line induction in carrot explant with varying kinds of auxins in induction medium. The assay is classed as cell-based, Daucus carota L. Conditions: for Cell line induction pattern (in words): auxin used in induction medium; for Reaction with respect to cambium: auxins at the same concentration in induction medium, after osmotic stress. How it is done:
A carrot (Daucus carota L.) was prepared and surface-sterilized in the same manner as in Example 1-1. Then, the prepared sample was treated with osmotic stress in the same manner as in Example 1-2 and Example 1-3, and then a cambium-derived cell line was induced from the carrot.
Also, other plant hormone auxins, including IAA, IBA, picloram, 2,4-D, CPA and NAA, were used at the same concentration to examine the influence of the hormone used in induction medium.

In assay [2] the test system is ginseng root cambium-containing explant. The experiment in a line: Cell induction in ginseng explant cultured in 2,4-D-containing medium. The assay is classed as cell-based. Conditions: about 7-14 days after yellowing. The method, then: Meanwhile, in order to examine the influence of the hormone used in the induction medium, the explant was cultured in a 2,4-D-containing medium, which was not the cambium-derived cell line induction medium and has been used in the conventional culture of general ginsengs. […] In other words, it could be seen that, when 2,4-D was used, cell line was induced all other tissues, non-specifically to the cambium.
As shown in FIG. 3(b), when a general culture system containing 2,4-D was used in culture, cells were induced from various tissues (cortex, phloem, xylem, cambium, pith, etc.) present in the entire cross section, and the various cells were mixed with each other. Thus, the induced and proliferated cells had heterogeneity. […] Thus, the induced cells had homogeneity.

Assay [3] concerns true wild ginseng adventitious root cambium-derived cell line. Nature of the assay: Proliferation of true wild ginseng adventitious root cambium-derived cell line in growth medium. It counts as cell-based. Conditions: hormone used instead of 2,4-D in medium 3. From the text:
As a result, the cambium-derived homogeneous cell line having the ability to divide continually divided and proliferated, and thus after about 10-20 days of the culture, the cambium-derived homogeneous cell line having the ability to divide could be isolated. The true wild ginseng cambium-derived homogeneous cell line thus isolated was allowed to proliferate again by culturing it in the same medium. […] Meanwhile, in the true wild ginseng adventitious root cambium-containing explant in Example 2-1, the cell line was allowed to proliferate in the same manner as in Example 2, except that IBA was used instead of 2,4-D in Table 7.

For assay [4], the system named is ginseng cambium-derived cell line. The experiment in a line: Proliferation of ginseng cambium-derived cell line in growth medium. It counts as cell-based. Conditions: growth medium containing IAA, not 2,4-D. The method, then: As shown in FIG. 3(a), after the explant was cultured in medium 2 of Example 1 to necrotize tissues other than the cambium, it was subcultured in medium 3. Medium 3 is an optimal medium for the proliferation of the cambium-derived cell line and is based on the basal salt composition shown in Table 6. When the cambium-derived homogeneous cell line having the ability to divide was cultured in medium 3, it continually divided and proliferated. After about 10-20 days of the culture, the cambium-derived cell line was isolated, and the isolated cell line was allowed to proliferate again in the same medium (medium 3).

The test system of a further assay is MMP-1. Nature of the assay: Inhibition of MMP-1 expression caused by UV light (UVB) in NHF cells. The assay is classed as cell-based, human. Conditions: 10 uM, 40 mJ UVB, 48 hours, No UV = 100, Control UV = 230. How it is done: When MMPs are increased due to exposure to UV light, the increased MMPs degrade skin collagen to form skin wrinkles. Thus, the following test was carried out in order to examine whether MMP-1 expression increased due to UV light is inhibited by an extract or culture medium of the true wild ginseng cambium-derived homogeneous cell line.
NHF (normal human fibroblast) cells used in the test were isolated from the fetal penis prepuce and cultured. The culture medium was prepared by adding 10% fetal bovine serum (FBS, Hyclone, Logan, Utah, USA), inactivated by heating at 56° C. for 30 minutes, 100 unit/ml of penicillin, 100 μg/ml of streptomycin and 300 μg/ml of glutamine to DMEM medium (Invitroge Gibco life tech. Vienna, Austriea). The cells were cultured in the medium in a 5% CO2 incubator at a temperature of 37° C. and a humidity of 95% and subcultured at 3-4-day intervals, immediately before the cells were fused with each other.
NHF(p6) cells were dispensed into a 12-well plate at a density of 75,000 cells/well and starved for 24 hours. Then, the cells were radiated with 40 mJ of UVB and treated with varying concentrations of each sample for 48 hours. Then, an experiment was carried out using a kit (Amersham, RPN 2610). As a positive control group, 10 μM retinoic acid was used. […]

Consider `O=C(O)COc1ccc(Cl)cc1Cl` [2,4-D, 2,4-dichlorophenoxyacetic acid], for which, in assay [1], the “Cell line induction pattern (in words)” value was “the cell line was induced throughout the whole explant rather than with respect to the cambium” and the “Reaction with respect to cambium” value is recorded as “−”. In addition, the “Cell induction pattern (in words)” value in assay [2] is on record as “cells were induced throughout the whole cross section”.

On to `O=C(O)COc1ccc(Cl)cc1` [CPA], for which, in assay [1], the “Cell line induction pattern (in words)” value is on record as “the cell line was induced throughout the whole explant rather than with respect to the cambium” and the “Reaction with respect to cambium” value was “−”.

For `O=C(O)Cc1c[nH]c2ccccc12` [IAA, indole-3-acetic acid], in assay [1], the “Cell line induction pattern (in words)” value is given as “the homogeneous cell line was induced with respect to the cambium”. The “Proliferation in growth medium (in words)” value is “did not differentiate and showed a tendency to differentiate” in assay [3]; “did not proliferate and showed a tendency to differentiate” in assay [4].

Regarding `O=C(O)CCCc1c[nH]c2ccccc12` [IBA, indole-3-butyric acid], in assay [1], the “Cell line induction pattern (in words)” value is “the homogeneous cell line was induced with respect to the cambium”. In assay [3], the “Proliferation in growth medium (in words)” value was “did not differentiate and proliferated”.

With `O=C(O)Cc1cccc2ccccc12` [NAA], the “Root induction with the passage of time (in words)” value in assay [1] (after about 4 weeks) is “a root was induced and differentiated in the cambium”. For the same molecule, in assay [1], the “Cell line induction pattern (in words)” value was “the cell line was induced throughout the whole explant rather than with respect to the cambium” and the “Reaction with respect to cambium” value is reported as “−”.

Turning to `Nc1c(Cl)c(Cl)nc(C(=O)O)c1Cl` [Picloram, picloram], in assay [1], the “Cell line induction pattern (in words)” value is recorded as “the cell line was induced throughout the whole explant rather than with respect to the cambium” and the “Reaction with respect to cambium” value is “−”.

On to `CC1=C(/C=C/C(C)=C/C=C/C(C)=C/C(=O)O)C(C)(C)CCC1` [Retinoic acid, retinoic acid], for which the “MMP-1 expression, % of control” value in the assay with MMP-1 was 85 % of control.

(Values after patent US8247230B2, “Plant stem cell line derived from cambium of herbaceous plant with storage root and method for isolating the same” (Unhwa Corporation, priority 2007, dated 2012).)
